Laboratory results from US8518978B2, “Pharmaceutical composition for prevention and treatment of restenosis comprising isoxazole derivatives” (SK Biopharmaceuticals Co., Ltd., priority 2007, dated 2013).

What was measured:
[1] = test system: HUVEC (human umbrical vein endothelial cell); experiment: Test of endothelial cell proliferation (cell count); type: cell-based; conditions: for endothelial cell proliferation: drug alone, increasing concentration, two days, cell count (FIGS. 5, 8 to 10)
Experimental: An HUVEC (human umbrical vein endothelial cell, Cambrex, US) cell line at 3-10 passages was incubated in an EGM2 (endothelial growth medium, Cambrex, US) culture medium under a standard culture condition (O2 95%, 5% CO2, 37° C., 100% RH). 1×10^4 Cells was divided into a 24-well plate, and cultured for a day so that the cells can be fixed into the 24-well plate. In order to allow the cells to enter interphase, the cells were washed three times with PBS, and the EGM2 culture medium was replaced by EBM2 (endothelial basal medium, Cambrex) including 1% fetal bovine serum and 1% antibiotic-antimycotic (Gibco, US), and the cells were incubated for a day. After the used medium was removed, an EBM2 including 1% fetal bovine serum and 1% antibiotic-antimycotic (Gibco) solution supplemented with a drug was added to the cells, and the cell solution was then cultured for two days. After the cell culture, morphology of the cells was observed under a microscope. Then, the cells were detached from the plate using trypsin, and counted using a hemacytometer. 0.1% DMSO dissolved in saline was used as the vehicle control.

pig coronary stent model [2] = experiment: Re-endothelization in pig coronary stent model (vWF staining); type: in vivo
Experimental: All pigs receiving a surgical operation were treated with an antithrombotic agent ‘clopidogrel’ (35 mg/day) and aspirin (100 mg/day) before one week of the surgical operation. Pigs weighed 30 to 40 kg were anesthetized with ketamine (20 mg/kg IM) and xylazine (2 mg/kg IM), and their aesthesia was maintained by connecting an infusion set to their ear veins and allowing a ketamine/xylazine solution (ketamin 50 g+xylazine 10 g/500 ml saline) to flow in the ear veins according to the aesthesia state. Pig surgery regions were shaved, sterilized with betadine. Skin on the neck was cut by approximately 5 cm, and a pig carotid artery was found using a mosquito, and 1 ml of heparin (5,000 IU) was administered to pigs. Angiocardiography was performed using a SIREMOBIL 245B angiocardiographer (commercially available from Siemens). A stent (diameter: 3.0 mm; length: 15 mm) was used for surgical operation on LAD, RAD and RCX by expanding the stent at a ratio 1.3:1 of stent:vein diameter, and a position of stent transplantation was previously determined using the imaging system. […]
In order to observe a re-endothelization level by a drug, a tissue section slide of pig blood vessel was reacted at 4° C. with vWF (von willebrand factor, DakoCytomation, US) Ab that stains endothelial cells of mice. […] The tissue section slide was observed and photographed under a fluorescence microscope.

[3] = test system: SMC (rat aortic smooth muscle cell); experiment: Test of vascular smooth muscle cell proliferation (cell count); type: cell-based
Experimental: An SMC (rat aortic smooth muscle cell) cell line at 3-10 passages was incubated in a culture medium of SmGM (Smooth muscle cell growth medium, Cambrex) including 5% fetal bovine serum and 1% antibiotic antimycotic reagent (Gibco, US) under a standard culture condition ([…], 5% CO2, 37° C., 100% RH). 2×10^4 Cells were divided into a 24-well plate, and cultured for a day so that the cells can be fixed into the 24-well plate. The cells were washed three times with PBS, put into a solution of SmGM including 5% fetal bovine serum and 1% antibiotic-antimycotic (Gibco), and then incubated for a day. After the used medium was removed, an SmGM including 5% fetal bovine serum solution supplemented with a corresponding drug was added to the cells, and the cell solution was then cultured for two days. After the cell culture, morphology of the cells was observed under a microscope. Then, the cells were detached from the plate using trypsin, and counted using a hemacytometer. 0.1% DMSO dissolved in saline was used as the vehicle control.

pig coronary stent model [4] = experiment: Restenosis inhibition in pig coronary stent model; type: in vivo
Experimental: All pigs receiving a surgical operation were treated with an antithrombotic agent ‘clopidogrel’ (35 mg/day) and aspirin (100 mg/day) before one week of the surgical operation. Pigs weighed 30 to 40 kg were anesthetized with ketamine (20 mg/kg IM) and xylazine (2 mg/kg IM), and their aesthesia was maintained by connecting an infusion set to their ear veins and allowing a ketamine/xylazine solution (ketamin 50 g+xylazine 10 g/500 ml saline) to flow in the ear veins according to the aesthesia state. Pig surgery regions were shaved, sterilized with betadine. Skin on the neck was cut by approximately 5 cm, and a pig carotid artery was found using a mosquito, and 1 ml of heparin (5,000 IU) was administered to pigs. Angiocardiography was performed using a SIREMOBIL 245B angiocardiographer (commercially available from Siemens). A stent (diameter: 3.0 mm; length: 15 mm) was used for surgical operation on LAD, RAD and RCX by expanding the stent at a ratio 1.3:1 of stent:vein diameter, and a position of stent transplantation was previously determined using the imaging system.
After 28 days, pigs were intravenously injected with KCl (40 meq/l) under a conventional aesthesia condition to induce pig cardioplegia, and hearts were extracted pigs. […]

[5] = test system: rat carotid artery injury model; experiment: Re-endothelization in rat carotid artery injury model (vWF staining); type: in vivo
From the text: (§1) White rats weighed 350 to 400 g were anesthetized with ketamine and xylene, and their surgery regions were shaved and sterilized with betadine. Skin on the neck region was cut by about 2 cm, and a rat carotid artery was found using a mosquito. A blood flow was prevented by hanging a thread on the carotid artery and an internal carotid artery, followed by tying an external carotid artery with a thread. A 2F forgarty catheter (Baxter, US) was inserted into a blood vessel between the external carotid artery and the carotid artery to wound a carotid artery region three times. Then, the wounded carotid artery region was tied with a thread to allow a blood flow through the carotid artery and the internal carotid artery and prevent hemorrhage between the carotid artery and the external carotid artery, and the surgery region was closed with stitches. Each of rear neck skins were cut by approximately 1 cm, and an osmotic pump containing a drug is inserted into the blood vessel and closed with stitches. After 1 week to observe the endothelial cells and 2 weeks to observe the restenosis, all blood was extracted from each subject rat using a perfusion, carotid arteries were taken from the rats and their tissue slides were made to observe their section of blood vessel. […]

[6] = test system: rat carotid artery injury model; experiment: Restenosis inhibition in rat carotid artery injury model; type: in vivo
From the text: as §1

[7] = isoxazole derivative together with rapamycin, versus rapamycin alone (FIG. 6)

SMILES	endothelial cell proliferation [1]	other results
O=C(NCCn1ccnc1)c1cc(-c2ccco2)on1 [Derivative 4, 5-furan-2-yl-isoxazole-3-carboxylic acid (2-imidazol-1-yl-ethyl)-amide]	inhibit or maintain the proliferation of the endothelial cells	–
O=C(NCCc1ccncc1)c1cc(-c2ccco2)on1 [Derivative 5, 5-furan-2-yl-isoxazole-3-carboxylic acid (2-pyridin-4-yl-ethyl)-amide]	increases or maintains the proliferation of HUVEC	re-endothelization on the damaged artery surface (pig coronary stent model [2]; 4 weeks, stent with rapamycin plus derivative 5 (FIG. 15)): significantly recovered; cell number of vascular smooth muscle cells (VSMC) ([3]; drug alone, increasing concentration, two days (FIG. 5)): reduced; vascular smooth muscle cell proliferation, used together with rapamycin [3, 7]: inhibited more significantly; lumen losses of blood vessel (pig coronary stent model [4]; stent with 180 μg rapamycin plus 45, 90 or 180 μg derivative 5, 28 days, versus rapamycin-treated group (FIG. 14)): further reduced; re-endothelization on damaged carotid artery surface ([5]; 200 μg/kg/day for two weeks, versus not administered (FIG. 12)): occurs more significantly; re-endothelization, together with rapamycin ([5]; compound together with rapamycin versus compound only (FIG. 13)): more significantly increased; endothelial cell proliferation, used together with paclitaxel ([1]; isoxazole derivative together with paclitaxel, versus paclitaxel alone (FIG. 7)): recovered; endothelial cell proliferation, used together with rapamycin [1, 7]: recovered; restenotic area of the blood vessel ([6]; 200 μg/kg/day for two weeks by osmotic pump, versus not administered (FIG. 11)): more significantly reduced in size; restenosis inhibition effect, together with rapamycin ([6]; compound together with rapamycin versus compound only (FIG. 11, FIG. 13)): more significant restenosis inhibition effect
O=C(NCCCn1cncn1)c1cc(-c2ccco2)on1 [Derivative 19, 5-furan-2-yl-isoxazole-3-carboxylic acid (3-[1,2,4]triazol-1-yl-propyl)-amide]	inhibit or maintain the proliferation of the endothelial cells	–
O=C(NCCCn1ccnc1)c1cc(-c2ccccc2)on1 [Derivative 23, 5-phenyl-isoxazole-3-carboxylic acid (3-imidazol-1-yl-propyl)-amide]	inhibit or maintain the proliferation of the endothelial cells	–
O=C(NCCCn1cncn1)c1cc(-c2ccc(F)cc2)on1 [Derivative 31, 5-(4-fluoro-phenyl)-isoxazole-3-carboxylic acid (3-[1,2,4]triazol-1-yl-propyl)-amide]	inhibit or maintain the proliferation of the endothelial cells	–
O=C(NCCn1cncn1)c1cc(-c2ccc(F)cc2)on1 [Derivative 35, 5-(4-fluoro-phenyl)-isoxazole-3-carboxylic acid (2-[1,2,4]triazol-1-yl-ethyl)-amide]	inhibit or maintain the proliferation of the endothelial cells	–
O=C(NCCCn1cncn1)c1cc(-c2cccs2)on1 [Derivative 50, 5-thiophen-2-yl-isoxazole-3-carboxylic acid (3-[1,2,4]-triazol-1-yl-propyl)-amide]	inhibit or maintain the proliferation of the endothelial cells	–
O=C(NCCCn1cncn1)c1cc(-c2ccsc2)on1 [Derivative 62, 5-thiophen-3-yl-isoxazole-3-carboxylic acid (3-[1,2,4]-triazol-1-yl-propyl)-amide]	inhibit or maintain the proliferation of the endothelial cells	–
O=C(NCCCn1ccnc1)c1cc(-c2ccsc2)on1 [Derivative 63, 5-thiophen-3-yl-isoxazole-3-carboxylic acid (3-imidazol-1-yl-propyl)-amide]	inhibit or maintain the proliferation of the endothelial cells	–
Cn1nnnc1SCCNC(=O)c1cc(-c2cccs2)on1 [Derivative 68, 5-thiophen-2-yl-isoxazole-3-carboxylic acid [2-(1-methyl-1H-tetrazol-5-yl-sulfanyl)-ethyl]-amide]	inhibit or maintain the proliferation of the endothelial cells	–
O=C(NCCCSc1nnc[nH]1)c1cc(-c2cccs2)on1 [Derivative 69, 5-thiophen-2-yl-isoxazole-3-carboxylic acid [3-(4H-[1,2,4]triazol-3-yl-sulfanyl)-propyl]-amide]	inhibit or maintain the proliferation of the endothelial cells	–
Cn1cnnc1S(=O)(=O)CCNC(=O)c1cc(-c2ccco2)on1 [Derivative 70, 5-furan-2-yl-isoxazole-3-carboxylic acid [2-(4-methyl-4H-[1,2,4]triazol-3-yl-sulfonyl)-ethyl]-amide]	inhibit or maintain the proliferation of the endothelial cells	–
CC(=O)O[C@H]1C(=O)[C@@]2(C)[C@H]([C@H](OC(=O)c3ccccc3)[C@]3(O)C[C@H](OC(=O)[C@H](O)[C@@H](NC(=O)c4ccccc4)c4ccccc4)C(C)=C1C3(C)C)[C@]1(OC(C)=O)CO[C@@H]1C[C@@H]2O [paclitaxel, reference compound]	inhibit the proliferation of HUVEC	–
CO[C@H]1C[C@@H]2CC[C@@H](C)[C@@](O)(O2)C(=O)C(=O)N2CCCC[C@H]2C(=O)O[C@H]([C@H](C)C[C@@H]2CC[C@@H](O)[C@H](OC)C2)CC(=O)[C@H](C)/C=C(\C)[C@@H](O)[C@@H](OC)C(=O)[C@H](C)C[C@H](C)/C=C/C=C/C=C/1C [rapamycin, reference compound]	–	re-endothelization rate (healing %) (pig coronary stent model [2]; drug-containing PLGA stent, polymer-coated stent 80.2% (FIG. 15)): 67.9%; restenotic areas of blood vessels (pig coronary stent model [4]; stent with PLGA polymer and drug, after 28 days, negative control 2.74 mm^2 (FIG. 14)): 1.80 mm^2
